For 13 compounds, T/C results are on record in PubChem BioAssay AID328 (DTP/NCI, 2004).

The test deals with BDF1 mice, P388 leukemia ip, median survival T/C. Kind of test: NCI In Vivo Anticancer Drug Screen. Data for tumor model P388 Leukemia (intraperitoneal) in B6D2F1 (BDF1) mice. Particulars: endpoint: median survival time, higher = longer survival. In outline:
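Antitumour effect was judged in vivo: survival in drug-treated mice, normalised to that of vehicle-dosed controls, gives the reported T/C.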

Where [1] appears, read: dose: 200.0 mg/kg/injection, schedule: Q01DX009 (ip), vehicle: saline.
Setting [2] is: dose: 50.0 mg/kg/injection, schedule: Q01DX009 (ip), vehicle: saline with Tween-80.

Several values for one entry are separate records, joined by “and”; a condition that tells them apart may be missing. Equal values may be shown once. Toxic doses and inconclusive results are not listed.

On to `CN(C)[C@@H]1C(=O)C(C(N)=O)=C(O)[C@@]2(O)C(=O)C3=C(O)c4c(O)ccc(Cl)c4[C@@](C)(O)[C@H]3C[C@@H]12`, for which the T/C (dose: 132.0 mg/kg/injection, schedule: Q01DX009 (ip), vehicle: saline) was 122 % of control and the T/C under setting [1] is 122 % of control.

Regarding `COc1ccc2c(Nc3ccc(NS(C)(=O)=O)cc3)c3ccccc3nc2c1`, the T/C reads like this: (dose: 0.66 mg/kg/injection, schedule: Q01DX009 (ip), vehicle: saline with Tween-80) 169 % of control; (dose: 1.0 mg/kg/injection, schedule: Q01DX009 (ip), vehicle: saline with Tween-80) 194 % of control; (dose: 1.5 mg/kg/injection, schedule: Q01DX009 (ip), vehicle: saline with Tween-80) 201 % of control; (dose: 2.66 mg/kg/injection, schedule: Q04DX003 (ip), vehicle: saline with Tween-80) 150 % of control; (dose: 4.0 mg/kg/injection, schedule: Q04DX003 (ip), vehicle: saline with Tween-80) 163 % of control; (dose: 6.0 mg/kg/injection, schedule: Q04DX003 (ip), vehicle: saline with Tween-80) 172 % of control. Further, the T/C reads like this: (dose: 9.0 mg/kg/injection, schedule: Q04DX003 (ip), vehicle: saline with Tween-80) 168 % of control; (dose: 22.0 mg/kg/injection, schedule: Q04DX003 (ip), vehicle: saline with Tween-80) 200 % of control; (dose: 25.0 mg/kg/injection, schedule: Q04DX003 (ip), vehicle: saline) 254 % of control; (dose: 33.0 mg/kg/injection, schedule: Q04DX003 (ip), vehicle: saline with Tween-80) 227 % of control; (dose: 50.0 mg/kg/injection, schedule: Q04DX003 (ip), vehicle: saline with Tween-80) 231 % of control; (dose: 50.0 mg/kg/injection, schedule: Q04DX003 (ip), vehicle: saline) 240 % of control. The T/C was 281 % of control (dose: 75.0 mg/kg/injection, schedule: Q04DX003 (ip), vehicle: saline with Tween-80) and 104 % of control (dose: 100.0 mg/kg/injection, schedule: Q04DX003 (ip), vehicle: saline).

With `COC(=O)N(CCCl)N=O`, the T/C (dose: 2.5 mg/kg/injection, schedule: Q01DX001 (ip), vehicle: saline with Tween-80) was 109 % of control; the T/C (dose: 5.0 mg/kg/injection, schedule: Q01DX001 (ip), vehicle: saline with Tween-80) is 109 % of control; the T/C (dose: 10.0 mg/kg/injection, schedule: Q01DX001 (ip), vehicle: saline with Tween-80) was 123 % of control.

Take `CC1CCCN2C(=O)CN(N3CCOCC3)CC(=O)N12` (configuration not stated): where the note is “dose: 100.0 mg/kg/injection, schedule: Q04DX002 (ip), vehicle: saline with Tween-80”, the T/C was 121 % of control.

Take `CCCC1CC[N-]CC1.CCCC1CC[N-]CC1.CCCC1CC[N-]CC1.CCCC1CC[N-]CC1.O=C([O-])C(=O)[O-].O=C([O-])C(=O)[O-].[Cl][Rh][Cl].[Nb+5].[O-][O-].[O-][O-]`: the T/C is 112 % of control (dose: 12.5 mg/kg/injection, schedule: Q01DX009 (ip), vehicle: saline); 91 % of control and 100 % of control (dose: 25.0 mg/kg/injection, schedule: Q01DX009 (ip), vehicle: saline); 87 % of control and 97 % of control and 98 % of control (dose: 50.0 mg/kg/injection, schedule: Q01DX009 (ip), vehicle: saline); 87 % of control (dose: 100.0 mg/kg/injection, schedule: Q01DX009 (ip), vehicle: saline); 99 % of control under setting [1]; 91 % of control and 94 % of control (dose: 400.0 mg/kg/injection, schedule: Q01DX009 (ip), vehicle: saline).

Regarding `COc1cccc2c1C(=O)c1c(O)c3c(c(O)c1C2=O)C[C@@](O)(/C(C)=N\O)C[C@@H]3OC1CC(N)C(O)C(C)O1` (some centres not stated), the T/C was 112 % of control (dose: 1.56 mg/kg/injection, schedule: Q01DX009 (ip), vehicle: water); 105 % of control (dose: 3.12 mg/kg/injection, schedule: Q01DX009 (ip), vehicle: water); 161 % of control (dose: 6.25 mg/kg/injection, schedule: Q01DX009 (ip), vehicle: water); 210 % of control (dose: 12.5 mg/kg/injection, schedule: Q01DX009 (ip), vehicle: water); 103 % of control (dose: 25.0 mg/kg/injection, schedule: Q01DX009 (ip), vehicle: water).

As to `CCOC(=O)CC(COC)C(C(=O)OCC)C(=O)OCC` (configuration not stated), the T/C is 95 % of control (dose: 25.0 mg/kg/injection, schedule: Q01DX009 (ip), vehicle: other); 121 % of control (dose: 50.0 mg/kg/injection, schedule: Q01DX009 (ip), vehicle: other); 122 % of control (dose: 50.0 mg/kg/injection, schedule: Q04DX003 (ip), vehicle: other); 92 % of control (dose: 100.0 mg/kg/injection, schedule: Q01DX009 (ip), vehicle: other); 122 % of control (dose: 100.0 mg/kg/injection, schedule: Q04DX003 (ip), vehicle: other); 100 % of control (dose: 200.0 mg/kg/injection, schedule: Q01DX009 (ip), vehicle: other). Also, the T/C is, setting by setting: (dose: 200.0 mg/kg/injection, schedule: Q04DX003 (ip), vehicle: other) 122 % of control; (dose: 400.0 mg/kg/injection, schedule: Q04DX003 (ip), vehicle: other) 100 % of control.

In the case of `S=P(NCCS)(N1CC1)N1CC1`, the T/C is 95 % of control (dose: 25.0 mg/kg/injection, schedule: Q01DX009 (ip), vehicle: saline with Tween-80); 122 % of control under setting [2]; 109 % of control (dose: 100.0 mg/kg/injection, schedule: Q01DX009 (ip), vehicle: saline with Tween-80).

As for `CN1c2ccccc2C(=O)N2CCc3c([nH]c4ccccc34)C21` (configuration not stated), the T/C (dose: 10.0 mg/kg/injection, schedule: Q01DX009 (ip), vehicle: saline with Tween-80) is 98 % of control and the T/C (dose: 20.0 mg/kg/injection, schedule: Q01DX009 (ip), vehicle: saline with Tween-80) is 118 % of control.

As to `CC(=O)CC1c2c(ccc3c2OCO3)-c2ccc3cc4c(cc3c2N1C)OCO4` (configuration not stated), the T/C runs as follows: (dose: 5.0 mg/kg/injection, schedule: Q01DX009 (ip), vehicle: Klucel (hydroxypropylcellulose) (HPC)) 95 % of control; (dose: 10.0 mg/kg/injection, schedule: Q01DX009 (ip), vehicle: Klucel (hydroxypropylcellulose) (HPC)) 110 % of control; (dose: 13.0 mg/kg/injection, schedule: Q01DX010 (ip), vehicle: saline) 100 % of control; (dose: 20.0 mg/kg/injection, schedule: Q01DX009 (ip), vehicle: Klucel (hydroxypropylcellulose) (HPC)) 120 % of control; (dose: 20.0 mg/kg/injection, schedule: Q01DX010 (ip), vehicle: saline) 105 % of control; (dose: 30.0 mg/kg/injection, schedule: Q01DX010 (ip), vehicle: saline) 110 % of control. For the same compound, under “dose: 40.0 mg/kg/injection, schedule: Q01DX009 (ip), vehicle: Klucel (hydroxypropylcellulose) (HPC)”, the T/C is 115 % of control.

On to `O=C1CCCCCC1Cc1cc(O)c(CC2CCCCCC2=O)cc1O` (configuration not stated), for which the T/C runs as follows: under setting [2], 96 % of control; (dose: 200.0 mg/kg/injection, schedule: Q01DX009 (ip), vehicle: saline with Tween-80) 97 % of control.

As to `S=c1c2[nH]cnc2ncn1CCSC1=NC=NC2=NC=NC21` (configuration not stated), the T/C is 100 % of control (dose: 100.0 mg/kg/injection, schedule: Q04DX003 (ip), vehicle: saline with Tween-80); 95 % of control (dose: 200.0 mg/kg/injection, schedule: Q04DX003 (ip), vehicle: saline with Tween-80); 109 % of control (dose: 400.0 mg/kg/injection, schedule: Q04DX003 (ip), vehicle: saline with Tween-80).

As to `[Cl][Hg][c]1ccc2ccccc2c1`, the T/C (dose: 12.5 mg/kg/injection, schedule: Q01DX009 (ip), vehicle: gum acacia) was 112 % of control.
